Laboratory results from patent US5807671A (priority 1995, dated 1998).
Entries after “also recorded” stand apart in the source; their conditions may differ.

Key:
BuChE normal = BuChE normal (Homo sapiens, UniProt P06276); format: biochemical
"atypical" serum BuChE = format: biochemical, human
AChE E6 = AChE E6 (Homo sapiens, UniProt P22303); format: biochemical
BuChE "atypical" = BuChE "atypical" (Homo sapiens, UniProt P06276, D98G)
AChE = format: biochemical, human
[1] = system: normal and "atypical" BuChE; format: biochemical, human
AChE E5 = AChE E5 (Homo sapiens, UniProt P22303); format: biochemical
BuChE F^329 D = format: biochemical, human
BuChE L^286 D = format: biochemical, human
BuChE D^70 G = format: biochemical, human
BuChE L^286 K = BuChE L^286 K (Homo sapiens, UniProt P06276, L314K); experiment: biochemical; format: biochemical
BuChE F^329 R = format: biochemical, human
[2] = system: BuChE D^70 G + Y^114 H + S^425 P; format: biochemical, human
BuChE F^329 C = format: biochemical, human
[3] = human, in vivo, iv; cited from earlier work
[4] = biological target: diisopropylphosphoryl-AChE (E5) (Homo sapiens, UniProt P22303)
[5] = biological target: diisopropylphosphoryl-BuChE (Homo sapiens, UniProt P06276); experiment: biochemical
BuChE S^425 P = format: biochemical, human
BuChE D^70 G + Y^114 H = format: biochemical, human
BuChE L^286 R = format: biochemical, human
[6] = biological target: diisopropylphosphoryl-AChE (E6) (Homo sapiens, UniProt P22303)
BuChE F^329 Q = format: biochemical, human
BuChE L^286 Q = format: biochemical, human
[7] = biological target: diisopropylphosphoryl-Chimera; format: biochemical, human
[8] = biological target: purified diethylphosphoryl-BuChE; conditions: cited from earlier work
BuChE D^70 G + S^425 P = format: biochemical, human
[9] = system: BuChE from heterozygous serum; format: biochemical, human; conditions: 30 min, 10 µM
normal serum BuChE = format: biochemical, human; conditions: 30 min, 10 µM
[10] = system: ChEs (all of the examined enzymes); format: biochemical, human
serum BuChE = conditions: in vivo; cited from earlier work
REM sleep = conditions: in vivo; cited from earlier work
Parkinson's disease = conditions: human, in vivo; cited from earlier work
[11] = human, in vivo; cited from earlier work
[12] = system: BuChE of heterozygotes / 1:1 mixture of normal and "atypical" BuChE
Alzheimer's disease [13] = conditions: in vivo; cited from earlier work
serum BuChE "atypical" = serum BuChE "atypical" (Homo sapiens, UniProt P06276, D98G)
"atypical" BuChE [14] = conditions: cited from earlier work
"atypical" BuChE [15] = conditions: cited from earlier work; remark: listed apart in the source
"atypical" BuChE [16] = conditions: cited from earlier work; remark: listed apart in the source
Alzheimer's disease [17] = conditions: in vivo; cited from earlier work; remark: listed apart in the source
[18] = in vivo
"atypical" BuChE [19] = format: biochemical, human
[20] = in vivo; remark: listed apart in the source
horse serum BuChE = conditions: cited from earlier work

Sequence of BuChE normal (P06276 29-602): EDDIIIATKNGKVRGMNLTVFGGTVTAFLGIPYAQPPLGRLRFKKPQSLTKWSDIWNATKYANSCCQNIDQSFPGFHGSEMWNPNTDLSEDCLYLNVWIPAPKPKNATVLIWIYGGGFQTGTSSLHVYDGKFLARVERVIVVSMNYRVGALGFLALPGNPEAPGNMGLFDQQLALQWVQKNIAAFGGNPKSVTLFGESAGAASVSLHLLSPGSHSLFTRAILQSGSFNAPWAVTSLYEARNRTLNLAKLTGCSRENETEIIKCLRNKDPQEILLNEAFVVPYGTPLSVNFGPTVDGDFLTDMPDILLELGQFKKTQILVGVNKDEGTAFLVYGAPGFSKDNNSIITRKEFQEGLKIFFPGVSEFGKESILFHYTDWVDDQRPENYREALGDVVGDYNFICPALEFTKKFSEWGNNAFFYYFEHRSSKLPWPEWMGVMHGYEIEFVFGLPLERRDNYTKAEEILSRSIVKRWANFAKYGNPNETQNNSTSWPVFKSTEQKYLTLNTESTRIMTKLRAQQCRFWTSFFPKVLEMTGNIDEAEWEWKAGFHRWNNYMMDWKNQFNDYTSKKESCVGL
Sequence of diisopropylphosphoryl-BuChE (P06276 29-602): as above
Sequence of BuChE L^286 K (P06276 29-602 L314K limits assumed): as the sequence (P06276 29-602) above, with L286K counted along it
Sequence of AChE E6 (P22303 32-614): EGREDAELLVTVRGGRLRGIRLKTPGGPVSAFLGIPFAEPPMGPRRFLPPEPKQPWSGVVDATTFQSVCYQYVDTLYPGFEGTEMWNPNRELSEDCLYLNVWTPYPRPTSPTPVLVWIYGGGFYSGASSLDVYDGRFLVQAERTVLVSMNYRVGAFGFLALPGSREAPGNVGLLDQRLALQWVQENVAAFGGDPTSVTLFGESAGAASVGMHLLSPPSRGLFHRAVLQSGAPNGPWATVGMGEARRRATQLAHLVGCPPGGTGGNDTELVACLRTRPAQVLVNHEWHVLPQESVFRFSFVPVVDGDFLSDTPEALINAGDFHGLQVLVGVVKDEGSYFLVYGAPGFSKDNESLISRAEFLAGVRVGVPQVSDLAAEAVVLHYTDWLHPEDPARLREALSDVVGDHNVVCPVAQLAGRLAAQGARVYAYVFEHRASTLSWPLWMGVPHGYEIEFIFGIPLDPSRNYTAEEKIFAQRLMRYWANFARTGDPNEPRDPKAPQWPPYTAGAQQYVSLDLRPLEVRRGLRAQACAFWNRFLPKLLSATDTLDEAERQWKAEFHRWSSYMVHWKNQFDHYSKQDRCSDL
Sequence of BuChE "atypical" (P06276 29-602 D98G limits assumed): as the sequence (P06276 29-602) above, with D70G counted along it
Sequence of AChE E5 (P22303-4 with tags, fused parts or gaps limits assumed): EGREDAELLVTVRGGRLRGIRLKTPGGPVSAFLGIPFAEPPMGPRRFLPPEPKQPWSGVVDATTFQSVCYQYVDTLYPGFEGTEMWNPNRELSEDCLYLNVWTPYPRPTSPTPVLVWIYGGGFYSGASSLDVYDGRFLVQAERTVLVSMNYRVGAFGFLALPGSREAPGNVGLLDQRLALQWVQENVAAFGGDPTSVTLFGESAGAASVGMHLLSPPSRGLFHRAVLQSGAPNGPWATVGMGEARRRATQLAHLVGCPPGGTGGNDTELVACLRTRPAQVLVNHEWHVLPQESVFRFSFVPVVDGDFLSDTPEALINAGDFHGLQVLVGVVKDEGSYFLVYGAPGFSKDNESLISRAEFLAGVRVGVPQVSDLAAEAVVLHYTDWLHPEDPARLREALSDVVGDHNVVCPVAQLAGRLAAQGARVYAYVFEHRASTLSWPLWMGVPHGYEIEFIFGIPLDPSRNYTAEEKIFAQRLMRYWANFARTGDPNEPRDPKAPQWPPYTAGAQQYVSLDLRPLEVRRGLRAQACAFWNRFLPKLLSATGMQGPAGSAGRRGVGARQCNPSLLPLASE
Sequence of diisopropylphosphoryl-AChE (E6) (P22303 32-614): as the sequence (P22303 32-614) above
Sequence of diisopropylphosphoryl-AChE (E5) (P22303-4 with tags, fused parts or gaps limits assumed): as the sequence (P22303-4 with tags, fused parts or gaps limits assumed) above
Sequence of serum BuChE "atypical" (P06276 29-602 D98G limits assumed): as the sequence (P06276 29-602) above, with D70G counted along it

CCCCCCCNC(=O)Oc1ccc2c(c1)C1(C)CCN(C)C1N2C (single isomer, unassigned) [N-heptyl physostigmine]
inactivation rates of common BuChE compared with AChE (BuChE normal): higher than or equal to
second order rate constants, ki, for inactivation (BuChE normal): 1.1 × 10^7 ± 0.3 × 10^7
reaction of "atypical" BuChE with carbamates, compared with its normal counterpart ("atypical" serum BuChE): much slower
second order rate constants, ki, for inactivation (AChE E6): 1.6 × 10^6
inactivation rates of "atypical" BuChE (BuChE "atypical"): considerably lower rates
second order rate constants, ki, for inactivation (BuChE "atypical"): 7.7 × 10^5 ± 4.4 × 10^5
reactivation (AChE): 5%
original activity regained [1]: 10%
second order rate constants, ki, for inactivation (AChE E5): 1.4 × 10^6

C[n+]1ccccc1C=NO [PAM, Pyridine-2-aldoxime methiodide]
k'r × 10^3 (BuChE F^329 D): 8 ± 1
k'r × 10^3 (BuChE L^286 D): 120 ± 30
k'r × 10^3 (BuChE D^70 G): 32 ± 4
reactivation rate lower than wild-type BuChE (BuChE D^70 G): 5 fold
Kd (BuChE L^286 K): > 5000 µM
Kr × 10^3 (BuChE L^286 K): 35 ± 27
k'r × 10^3 (BuChE L^286 K): 4 ± 1
reduction in the pseudo-first order rate constant for reactivation (BuChE L^286 K): 40 fold
k'r × 10^3 (BuChE F^329 R): 43
k'r × 10^3 [2]: 4 ± 1
k'r × 10^3 (BuChE F^329 C): 14 ± 2
Cmax [3]: ≤ 40 µM
Kr × 10^3 [4]: 10 ± 5
k'r × 10^3 [4]: 8 ± 3
Kd [5]: 300 µM
Kr × 10^3 [5]: 220 ± 60
k'r × 10^3 [5]: 150 ± 30
pseudo-first order rate constant for reactivation of DFP-inhibited BuChE, higher than AChE [5]: 25 fold
k'r × 10^3 (BuChE S^425 P): 134 ± 8
k'r × 10^3 (BuChE D^70 G + Y^114 H): 12 ± 5
k'r × 10^3 (BuChE L^286 R): 6 ± 3
Kr × 10^3 [6]: 7 ± 3
k'r × 10^3 [6]: 6 ± 2
k'r × 10^3 (BuChE F^329 Q): 44 ± 15
k'r × 10^3 (BuChE L^286 Q): 120 ± 20
Kd [7]: 340 ± 130 µM
Kr × 10^3 [7]: 48 ± 20
k'r × 10^3 [7]: 40 ± 18
reactivation rate constant lower than that of native BuChE [7]: 5 fold
Kd [8]: 200 µM
k'r × 10^3 (BuChE D^70 G + S^425 P): 11

CCN(C)C(=O)Oc1cccc([C@H](C)N(C)C)c1 [SDZ ENA-713]
loss of BuChE activity [9]: 80%
inactivation rates of common BuChE compared with AChE (BuChE normal): higher than or equal to
second order rate constants, ki, for inactivation (BuChE normal): 1.4 × 10^4 ± 0.3 × 10^4
reaction of "atypical" BuChE with carbamates, compared with its normal counterpart ("atypical" serum BuChE): much slower
decrease in BuChE activity ("atypical" serum BuChE; serum, 30 min, 10 µM): about 40%
second order rate constants, ki, for inactivation (AChE E6): 4.3 × 10^3
loss of BuChE activity (normal serum BuChE): 95%
inactivation rates of "atypical" BuChE (BuChE "atypical"): considerably lower rates
second order rate constants, ki, for inactivation (BuChE "atypical"): 4.7 × 10^2 ± 4.6 × 10^2
reactivation levels [10]: ≤ 8%
serum BuChE activity (serum BuChE): transient drop in serum BuChE activity
frequency of rapid eye movements during REM sleep (REM sleep): increase the frequency of rapid eye movements during REM sleep
second order rate constants, ki, for inactivation (AChE E5): 3.3 × 10^3

Nc1c2c(nc3ccccc13)CCCC2 [Tacrine, 1,2,3,4-tetrahydro-9 aminoacridine]
symptoms of PD patient (Parkinson's disease): worsening of the symptoms
cases in which aminotransferase reached 20 times the upper limit of normal [11]: 2%
patients with severe cholinergic side-effects [11]: over 10%
serum alanine aminotransferase level in 2% of the cases [11]: 20 times the upper limit of normal
serum alanine aminotransferase level, usually [11]: less than three times the upper limit of normal value
serum BuChE activity (serum BuChE): transient drop in serum BuChE activity
inhibition curves of mixtures of normal and "atypical" enzyme [12]: expected intermediary inhibition curves
inhibition in the presence of 1 μm tacrine [12]: intermediate levels of activity
improvement in Alzheimer's disease patients (Alzheimer's disease [13]): statistically significant, dose-related improvements
capacity of "atypical" BuChE to interact with tacrine, compared with the normal enzyme (serum BuChE "atypical"): drastic reduction

CC(=O)Oc1ccccc1C(=O)O [aspirin]
Km with "atypical" variant, higher than with usual enzyme ("atypical" BuChE [14]): ~4 fold

CN(C)C(=O)Oc1cc(OC(=O)N(C)C)cc(C(O)CNC(C)(C)C)c1 (stereo not shown) [bambuterol]
IC50, higher for "atypical" than wild-type BuChE ("atypical" BuChE [15]): at least 10 fold
Ki, higher for "atypical" than wild-type BuChE ("atypical" BuChE [15]): at least 10 fold

CCCCOc1cc(C(=O)NCCN(CC)CC)c2ccccc2n1 [dibucaine]
hydrolysis by "atypical" BuChE ("atypical" BuChE [16]): inability of the affected enzyme to hydrolyze

CC(=O)Oc1ccc2c3c1O[C@H]1[C@@H](OC(C)=O)C=C[C@H]4[C@@H](C2)N(C)CC[C@@]341 [heroin]
Km with "atypical" variant, higher than with usual enzyme ("atypical" BuChE [14]): 4 fold

CC(C)NP(=O)(NC(C)C)OP(=O)(NC(C)C)NC(C)C [iso-OMPA]
sensitivity of the atypical variant to inhibitors ("atypical" BuChE [15]): much less sensitive

CNC(=O)Oc1ccc2c(c1)[C@]1(C)CCN(C)[C@@H]1N2C [physostigmine]
inactivation rates of common BuChE compared with AChE (BuChE normal): higher than or equal to
second order rate constants, ki, for inactivation (BuChE normal): 3.8 × 10^5 ± 1.6 × 10^5
reaction of "atypical" BuChE with carbamates, compared with its normal counterpart ("atypical" serum BuChE): much slower
IC50, higher for "atypical" than wild-type BuChE ("atypical" BuChE [15]): at least 10 fold
Ki, higher for "atypical" than wild-type BuChE ("atypical" BuChE [15]): at least 10 fold
sensitivity of the atypical variant to inhibitors ("atypical" BuChE [15]): much less sensitive
inactivation rates of "atypical" BuChE (BuChE "atypical"): considerably lower rates
second order rate constants, ki, for inactivation (BuChE "atypical"): 2.6 × 10^4 ± 0.9 × 10^4
spontaneous reactivation (AChE): up to 90%
effect on cognitive functions (Alzheimer's disease [17]): small, short-term positive effect on cognitive functions

CCN(CC)CCOC(=O)c1ccc(N)cc1 [procaine]
Km with "atypical" variant, higher than with usual enzyme ("atypical" BuChE [14]): 15 fold

CN(C)C(=O)Oc1ccc[n+](C)c1 [pyridostigmine]
second order rate constants, ki, for inactivation (BuChE normal): 1.9 × 10^3 ± 0.2 × 10^3
reaction of "atypical" BuChE with carbamates, compared with its normal counterpart ("atypical" serum BuChE): much slower
second order rate constants, ki, for inactivation (AChE E6): 2.2 × 10^4
adverse symptoms under pyridostigmine [18]: insomnia, weight loss and general fatigue, which worsened consistently, and a deep depression
reactivation (AChE): 50%
reactivation [1]: 10%
second order rate constants, ki, for inactivation (AChE E5): 2.5 × 10^4

C[N+](C)(C)CCOC(=O)CCC(=O)OCC[N+](C)(C)C [succinylcholine]
hydrolysis by serum BuChE of H. K. ("atypical" BuChE [19]): totally incapable of hydrolyzing; also recorded: cannot hydrolyze
post-anesthesia apnea [20]: two hour post-anesthesia apnea
hydrolysis by "atypical" BuChE ("atypical" BuChE [16]): unable to hydrolyze; also recorded: inability of the affected enzyme to hydrolyze
hydrolysis by horse serum BuChE (horse serum BuChE): will not hydrolyze
